Test results taken from patent US20210283261A1, “Compositions and Methods for Treating ALK-Mediated Cancer” (ICAHN SCHOOL OF MEDICINE AT MOUNT SINAI, priority 2017, published 2021).

Target: T1, NPM-ALK fusion protein (Homo sapiens, UniProt Q9UM73)
T1 construct: endogenous in cells; host or cells: SU-DHL-1; the other entry of the earlier key: NPM1 (P06748, Nucleophosmin)
Assay: Western blot of NPM-ALK fusion protein levels in SU-DHL-1 cells
Assay type: cell-based
Settings: SU-DHL-1 cells, 30 nM, Western blot; read-out: ALK fusion protein degradation, SU-DHL-1 (30 nM)
Experimental: Cells were cultured in a 37° C. incubator with 5% CO2.
Cells were washed with cold PBS once and lysed in 1× Laemmli loading buffer directly. […] Membrane was blocked in 5% milk in Tris-buffered saline and Tween 20 (TBST) for 1 h at room temperature, followed by incubation with a primary antibody overnight at 4° C., and a horseradish peroxidase (HRP)-conjugated secondary antibody for 1 h at room temperature. The membrane was imaged by a ChemiDoc MP imaging system (BIO-RAD). Antibodies against GAPDH (abeam), Phospho-ALK (Tyr1507), ALK (Cell Signaling Technology), Tubulin (Santa Cruz) were purchased commercially.
SU-DHL-1 suspension cells were seeded in 12-well plates at a density of 6×10^5/mL and treated with DMSO or indicated compounds at 30 nM or 100 nM for indicated time.
SU-DHL-1 cells were seeded in 12-well plates at a density of 4×10^5/mL and treated with DMSO or indicated serial dilutions of compounds for 16 h. The NPM-ALK fusion protein levels were determined by Western blot and normalized against GPADH (right panel).

T1 sequence (Q9UM73 with tags, fused parts or gaps): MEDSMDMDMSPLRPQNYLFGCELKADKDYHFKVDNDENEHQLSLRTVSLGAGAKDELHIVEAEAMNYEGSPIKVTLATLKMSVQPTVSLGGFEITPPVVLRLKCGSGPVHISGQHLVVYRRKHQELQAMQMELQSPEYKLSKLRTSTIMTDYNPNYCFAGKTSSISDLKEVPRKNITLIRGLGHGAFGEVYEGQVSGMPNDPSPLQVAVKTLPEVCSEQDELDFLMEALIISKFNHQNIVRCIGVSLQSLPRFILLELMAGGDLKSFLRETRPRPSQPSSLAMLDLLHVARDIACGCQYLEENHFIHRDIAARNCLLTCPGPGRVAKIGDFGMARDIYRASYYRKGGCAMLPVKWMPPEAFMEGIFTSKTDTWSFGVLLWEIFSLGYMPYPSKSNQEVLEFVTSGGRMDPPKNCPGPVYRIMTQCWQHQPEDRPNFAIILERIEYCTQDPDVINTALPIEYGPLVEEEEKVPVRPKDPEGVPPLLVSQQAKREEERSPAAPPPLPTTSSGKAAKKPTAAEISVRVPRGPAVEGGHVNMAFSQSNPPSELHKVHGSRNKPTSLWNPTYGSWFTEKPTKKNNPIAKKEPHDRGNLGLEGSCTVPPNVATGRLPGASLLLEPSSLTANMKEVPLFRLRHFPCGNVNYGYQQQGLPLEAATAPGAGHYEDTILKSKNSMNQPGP

Dmax at 0.03 µM [%]	SMILES
20 to 80	Cc1cc(Nc2ncc(Cl)c(Nc3ccccc3S(=O)(=O)C(C)C)n2)c(OC(C)C)cc1C1CCN(CC(=O)NCCCCC(=O)N[C@H](C(=O)N2C[C@H](O)C[C@H]2C(=O)NCc2ccc(-c3scnc3C)cc2)C(C)(C)C)CC1 [CZ40-88, (2S,4R)-1-((S)-2-(5-(2-(4-(4-((5-Chloro-4-((2-(isopropylsulfonyl)phenyl)amino)pyrimidin-2-yl)amino)-5-isopropoxy-2-methylphenyl)piperidin-1-yl)acetamido)pentanamido)-3,3-dimethylbutanoyl)-4-hydroxy-N-(4-(4-methylthiazol-5-yl)benzyl)pyrrolidine-2-carboxamide]
< 20	Cc1cc(Nc2ncc(Cl)c(Nc3ccccc3S(=O)(=O)C(C)C)n2)c(OC(C)C)cc1C1CCN(CC(=O)NCCOCCOCC(=O)N[C@H](C(=O)N2C[C@H](O)C[C@H]2C(=O)NCc2ccc(-c3scnc3C)cc2)C(C)(C)C)CC1 [CZ40-86, (2S,4R)-1-((S)-2-(tert-Butyl)-14-(4-(4-((5-chloro-4-((2-(isopropylsulfonyl)phenyl)amino)pyrimidin-2-yl)amino)-5-isopropoxy-2-methylphenyl)piperidin-1-yl)-4,13-dioxo-6,9-dioxa-3,12-diazatetradecanoyl)-4-hydroxy-N-(4-(4-methylthiazol-5-yl)benzyl)pyrrolidine-2-carboxamide]
> 80	Cc1cc(Nc2ncc(Cl)c(Nc3ccccc3S(=O)(=O)C(C)C)n2)c(OC(C)C)cc1C1CCN(CC(=O)NCCCCCCCNc2cccc3c2C(=O)N(C2CCC(=O)NC2=O)C3=O)CC1 (centres unmarked) [CZ40-83, 2-(4-(4-((5-Chloro-4-((2-(isopropylsulfonyl)phenyl)amino)pyrimidin-2-yl)amino)-5-isopropoxy-2-methylphenyl)piperidin-1-yl)-N-(7-((2-(2,6-dioxopiperidin-3-yl)-1,3-dioxoisoindolin-4-yl)amino)heptyl)acetamide]

Target: T2, ALK fusion protein (Homo sapiens, UniProt Q9UM73)
T2 construct: endogenous in cells; host or cells: NCI-H3122; the other entry of the earlier key: EML4 (Q9HC35, Echinoderm microtubule-associated protein-like 4)
Assay: Western blot of ALK fusion protein levels in NCI-H3122 cells
Assay type: cell-based
Settings: NCI-H3122, NCI-H3122 cells, 500 nM, Western blot; read-out: ALK fusion protein degradation, NCI-H3122 (500 nM)
Experimental: SU-DHL-1, NCI-H3122 and NCI-H2228 cells were cultured in RPMI-1640 medium supplemented with 10% fetal bovine serum, 50 μg/mL penicillin and streptomycin. Cells were cultured in a 37° C. incubator with 5% CO2.
Cells were washed with cold PBS once and lysed in 1× Laemmli loading buffer directly. Lysates were heated at 99° C. for […], and resolved on 4-15% precast SDS-PAGE (BIO-RAD) and transferred onto PVDF membrane. Membrane was blocked in 5% milk in Tris-buffered saline and Tween 20 (TBST) for 1 h at room temperature, followed by incubation with a primary antibody overnight at 4° C., and a horseradish peroxidase (HRP)-conjugated secondary antibody for 1 h at room temperature. The membrane was imaged by a ChemiDoc MP imaging system (BIO-RAD). Antibodies against GAPDH (abeam), Phospho-ALK (Tyr1507), ALK (Cell Signaling Technology), Tubulin (Santa Cruz) were purchased commercially. […]

T2 sequence (Q9UM73 with tags, fused parts or gaps): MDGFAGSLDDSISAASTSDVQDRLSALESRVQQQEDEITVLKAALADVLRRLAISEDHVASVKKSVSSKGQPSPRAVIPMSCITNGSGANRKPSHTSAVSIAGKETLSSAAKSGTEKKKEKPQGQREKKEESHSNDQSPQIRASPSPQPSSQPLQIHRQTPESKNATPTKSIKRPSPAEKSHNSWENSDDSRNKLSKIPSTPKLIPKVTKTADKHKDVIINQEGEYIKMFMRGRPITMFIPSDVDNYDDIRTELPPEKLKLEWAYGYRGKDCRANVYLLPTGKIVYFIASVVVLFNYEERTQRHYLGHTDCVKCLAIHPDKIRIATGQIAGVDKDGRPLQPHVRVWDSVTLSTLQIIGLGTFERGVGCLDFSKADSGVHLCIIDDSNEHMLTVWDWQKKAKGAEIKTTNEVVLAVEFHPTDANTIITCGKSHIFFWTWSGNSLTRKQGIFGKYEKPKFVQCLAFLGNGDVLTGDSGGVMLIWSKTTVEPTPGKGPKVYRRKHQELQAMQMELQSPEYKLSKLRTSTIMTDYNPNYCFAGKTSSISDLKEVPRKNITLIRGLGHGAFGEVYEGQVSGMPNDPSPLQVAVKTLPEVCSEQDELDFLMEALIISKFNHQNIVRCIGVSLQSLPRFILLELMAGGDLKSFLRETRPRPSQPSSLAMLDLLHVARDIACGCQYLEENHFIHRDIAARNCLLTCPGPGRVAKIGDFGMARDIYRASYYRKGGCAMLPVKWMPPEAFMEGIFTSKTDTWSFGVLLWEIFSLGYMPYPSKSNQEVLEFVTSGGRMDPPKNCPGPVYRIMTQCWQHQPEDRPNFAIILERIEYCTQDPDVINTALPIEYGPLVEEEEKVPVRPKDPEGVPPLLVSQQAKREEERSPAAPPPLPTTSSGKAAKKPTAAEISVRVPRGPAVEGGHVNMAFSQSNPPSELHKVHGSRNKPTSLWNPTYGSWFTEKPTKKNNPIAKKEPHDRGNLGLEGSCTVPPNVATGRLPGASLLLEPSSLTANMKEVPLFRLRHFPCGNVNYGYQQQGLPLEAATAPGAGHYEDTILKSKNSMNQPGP

SMILES	Dmax at 0.5 µM [%]
Cc1cc(Nc2ncc(Cl)c(Nc3ccccc3S(=O)(=O)C(C)C)n2)c(OC(C)C)cc1C1CCN(C(=O)CCCCCCCC(=O)N[C@H](C(=O)N2C[C@H](O)C[C@H]2C(=O)NCc2ccc(-c3scnc3C)cc2)C(C)(C)C)CC1 [CZ47-27, (2S,4R)-1-((S)-2-(9-(4-(4-((5-Chloro-4-((2-(isopropylsulfonyl)phenyl)amino)pyrimidin-2-yl)amino)-5-isopropoxy-2-methylphenyl)piperidin-1-yl)-9-oxononanamido)-3,3-dimethylbutanoyl)-4-hydroxy-7V-(4-(4-methylthiazol-5-yl)benzyl)pyrrolidine-2-carboxamide]	> 80
Cc1cc(Nc2ncc(Cl)c(Nc3ccccc3S(=O)(=O)C(C)C)n2)c(OC(C)C)cc1C1CCN(C(=O)CCCCCCCCC(=O)N[C@H](C(=O)N2C[C@H](O)C[C@H]2C(=O)NCc2ccc(-c3scnc3C)cc2)C(C)(C)C)CC1 [CZ47-28, (2S,4R)-1-((S)-2-(10-(4-(4-((5-Chloro-4-((2-(isopropylsulfonyl)phenyl)amino)pyrimidin-2-yl)amino)-5-isopropoxy-2-methylphenyl)piperidin-1-yl)-10-oxodecanamido)-3,3-dimethylbutanoyl)-4-hydroxy-N-(4-(4-methylthiazol-5-yl)benzyl)pyrrolidine-2-carboxamide]	< 20
Cc1cc(Nc2ncc(Cl)c(Nc3ccccc3S(=O)(=O)C(C)C)n2)c(OC(C)C)cc1C1CCN(C(=O)CCOCCOCCOCCC(=O)N[C@H](C(=O)N2C[C@H](O)C[C@H]2C(=O)NCc2ccc(-c3scnc3C)cc2)C(C)(C)C)CC1 [CZ47-18, (2S,4R)-1-((S)-2-(tert-Butyl)-16-(4-(4-((5-chloro-4-((2-(isopropylsulfonyl)phenyl)amino)pyrimidin-2-yl)amino)-5-isopropoxy-2-methylphenyl)piperidin-1-yl)-4,16-dioxo-7,10,13-trioxa-3-azahexadecanoyl)-4-hydroxy-N-(4-(4-methylthiazol-5-yl)benzyl)pyrrolidine-2-carboxamide]	< 20
Cc1cc(Nc2ncc(Cl)c(Nc3ccccc3S(=O)(=O)C(C)C)n2)c(OC(C)C)cc1C1CCN(C(=O)CCOCCOCCOCCOCCOCCC(=O)N[C@H](C(=O)N2C[C@H](O)C[C@H]2C(=O)NCc2ccc(-c3scnc3C)cc2)C(C)(C)C)CC1 [CZ47-21, (2S,4R)-1-((S)-2-(tert-Butyl)-22-(4-(4-((5-chloro-4-((2-(isopropylsulfonyl)phenyl)amino)pyrimidin-2-yl)amino)-5-isopropoxy-2-methylphenyl)piperidin-1-yl)-4,22-dioxo-7,10,13,16,19-pentaoxa-3-azadocosanoyl)-4-hydroxy-N-(4-(4-methylthiazol-5-yl)benzyl)pyrrolidine-2-carboxamide]	< 20
Cc1cc(Nc2ncc(Cl)c(Nc3ccccc3S(=O)(=O)C(C)C)n2)c(OC(C)C)cc1C1CCN(C(=O)COCC(=O)N[C@H](C(=O)N2C[C@H](O)C[C@H]2C(=O)NCc2ccc(-c3scnc3C)cc2)C(C)(C)C)CC1 [CZ47-13, (2S,4R)-1-((S)-2-(2-(2-(4-(4-((5-Chloro-4-((2-(isopropylsulfonyl)phenyl)amino)pyrimidin-2-yl)amino)-5-isopropoxy-2-methylphenyl)piperidin-1-yl)-2-oxoethoxy)acetamido)-3,3-dimethylbutanoyl)-4-hydroxy-N-(4-(4-methylthiazol-5-yl)benzyl)pyrrolidine-2-carboxamide]	20 to 80
Cc1cc(Nc2ncc(Cl)c(Nc3ccccc3S(=O)(=O)C(C)C)n2)c(OC(C)C)cc1C1CCN(C(=O)CCCCCC(=O)N[C@H](C(=O)N2C[C@H](O)C[C@H]2C(=O)NCc2ccc(-c3scnc3C)cc2)C(C)(C)C)CC1 [CZ47-25, (2S,4R)-1-((S)-2-(7-(4-(4-((5-Chloro-4-((2-(isopropylsulfonyl)phenyl)amino)pyrimidin-2-yl)amino)-5-isopropoxy-2-methylphenyl)piperidin-1-yl)-7-oxoheptanamido)-3,3-dimethylbutanoyl)-4-hydroxy-N-(4-(4-methylthiazol-5-yl)benzyl)pyrrolidine-2-carboxamide]	> 80

Results, then the molecule that gave them:

Dmax at 0.5 µM [%]	SMILES
< 20	Cc1cc(Nc2ncc(Cl)c(Nc3ccccc3S(=O)(=O)C(C)C)n2)c(OC(C)C)cc1C1CCN(C(=O)CNc2cccc3c2C(=O)N(C2CCC(=O)NC2=O)C3=O)CC1 (centres unmarked) [CZ47-01, 4-((2-(4-(4-((5-Chloro-4-((2-(isopropylsulfonyl)phenyl)amino)pyrimidin-2-yl)amino)-5-isopropoxy-2-methylphenyl)piperidin-1-yl)-2-oxoethyl)amino)-2-(2,6-dioxopiperidin-3-yl)isoindoline-1,3-dione]
< 20	Cc1cc(Nc2ncc(Cl)c(Nc3ccccc3S(=O)(=O)C(C)C)n2)c(OC(C)C)cc1C1CCN(C(=O)CCCCCNc2cccc3c2C(=O)N(C2CCC(=O)NC2=O)C3=O)CC1 (centres unmarked) [CZ47-05, 4-((6-(4-(4-((5-Chloro-4-((2-(isopropylsulfonyl)phenyl)amino)pyrimidin-2-yl)amino)-5-isopropoxy-2-methylphenyl)piperidin-1-yl)-6-oxohexyl)amino)-2-(2,6-dioxopiperidin-3-yl)isoindoline-1,3-dione]
20 to 80	Cc1cc(Nc2ncc(Cl)c(Nc3ccccc3S(=O)(=O)C(C)C)n2)c(OC(C)C)cc1C1CCN(C(=O)CCNc2cccc3c2C(=O)N(C2CCC(=O)NC2=O)C3=O)CC1 (centres unmarked) [CZ47-02, 4-((3-(4-(4-((5-Chloro-4-((2-(isopropylsulfonyl)phenyl)amino)pyrimidin-2-yl)amino)-5-isopropoxy-2-methylphenyl)piperidin-1-yl)-3-oxopropyl)amino)-2-(2,6-dioxopiperidin-3-yl)isoindoline-1,3-dione]
> 80	Cc1cc(Nc2ncc(Cl)c(Nc3ccccc3S(=O)(=O)C(C)C)n2)c(OC(C)C)cc1C1CCN(C(=O)CCOCCNc2cccc3c2C(=O)N(C2CCC(=O)NC2=O)C3=O)CC1 (centres unmarked) [CZ47-08, 4-((2-(3-(4-(4-((5-Chloro-4-((2-(isopropylsulfonyl)phenyl)amino)pyrimidin-2-yl)amino)-5-isopropoxy-2-methylphenyl)piperidin-1-yl)-3-oxopropoxy)ethyl)amino)-2-(2,6-dioxopiperidin-3-yl)isoindoline-1,3-dione]
20 to 80	Cc1cc(Nc2ncc(Cl)c(Nc3ccccc3S(=O)(=O)C(C)C)n2)c(OC(C)C)cc1C1CCN(C(=O)CCCCNc2cccc3c2C(=O)N(C2CCC(=O)NC2=O)C3=O)CC1 (centres unmarked) [CZ47-04, 4-((5-(4-(4-((5-Chloro-4-((2-(isopropylsulfonyl)phenyl)amino)pyrimidin-2-yl)amino)-5-isopropoxy-2-methylphenyl)piperidin-1-yl)-5-oxopentyl)amino)-2-(2,6-dioxopiperidin-3-yl)isoindoline-1,3-dione]
